Source: US8697730B2, “5-lipoxygenase activating protein (FLAP) inhibitor” (Panmira Pharmaceuticals, LLC, priority 2007, dated 2014)
Where two headings read alike, the source gives them in different places.

Columns and labels:
[1] = biological target: T1, CYP1A2 (Homo sapiens, UniProt P05177); assay: biochemical
T1 sequence (P05177 1-516): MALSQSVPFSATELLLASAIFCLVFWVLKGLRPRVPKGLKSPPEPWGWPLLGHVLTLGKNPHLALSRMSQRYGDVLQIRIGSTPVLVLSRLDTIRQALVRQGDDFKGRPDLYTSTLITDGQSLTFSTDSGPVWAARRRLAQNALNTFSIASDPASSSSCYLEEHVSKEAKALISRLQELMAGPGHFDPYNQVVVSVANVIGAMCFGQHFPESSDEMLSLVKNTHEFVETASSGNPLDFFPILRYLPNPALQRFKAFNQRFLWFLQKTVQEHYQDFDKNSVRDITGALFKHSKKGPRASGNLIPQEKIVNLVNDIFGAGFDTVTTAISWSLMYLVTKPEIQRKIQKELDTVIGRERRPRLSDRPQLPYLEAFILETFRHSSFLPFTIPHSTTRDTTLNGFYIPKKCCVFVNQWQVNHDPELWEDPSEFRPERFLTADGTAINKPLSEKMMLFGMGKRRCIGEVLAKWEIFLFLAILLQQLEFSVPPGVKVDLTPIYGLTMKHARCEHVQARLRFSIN

[2] = in vivo; conditions: male, Sprague-Dawley, rat, po
[3] = Solubility in organic solvents; assay type: physicochemical; conditions: for solubility: 25 °C, Form C, read-out: Solubility, mg/mL at 25° C.
[4] = biological target: CYP3A4 (Homo sapiens, UniProt P08684); assay: biochemical
CYP3A4, sequence (P08684 whole entry): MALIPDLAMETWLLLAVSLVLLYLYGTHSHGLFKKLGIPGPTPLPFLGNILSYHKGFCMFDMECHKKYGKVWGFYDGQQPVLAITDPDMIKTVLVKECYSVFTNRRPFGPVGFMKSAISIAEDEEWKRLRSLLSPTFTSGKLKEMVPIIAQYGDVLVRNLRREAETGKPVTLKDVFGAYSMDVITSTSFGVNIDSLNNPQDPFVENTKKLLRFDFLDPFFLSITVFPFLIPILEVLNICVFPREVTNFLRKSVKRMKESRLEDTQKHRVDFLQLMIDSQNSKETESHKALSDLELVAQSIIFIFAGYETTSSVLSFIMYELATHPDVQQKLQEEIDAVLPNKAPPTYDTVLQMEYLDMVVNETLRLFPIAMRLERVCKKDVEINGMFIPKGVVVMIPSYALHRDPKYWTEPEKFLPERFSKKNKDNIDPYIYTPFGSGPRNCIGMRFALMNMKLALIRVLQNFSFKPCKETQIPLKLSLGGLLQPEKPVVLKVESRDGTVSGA

- IC50 [1]: > 50 µM
- Tmax [2]: ≥ 2 h
- solubility ([3]; aqueous with cosolvent or surfactant or cyclodextrin, 0.5% Methylcellulose/water): 9.3 mg/mL
- solubility ([3]; organic solvent or mixture, Acetonitrile): 0.2 mg/mL
- solubility ([3]; organic solvent or mixture, Ethanol): 17.1 mg/mL
- solubility ([3]; organic solvent or mixture, Isopropanol): 1.1 mg/mL
- solubility ([3]; organic solvent or mixture, Methanol): > 50 mg/mL
- solubility ([3]; organic solvent or mixture, Propylene glycol): 13.4 mg/mL
- solubility in words ([3]; acetonitrile): sparingly soluble
- solubility in words ([3]; isopropanol): sparingly soluble
- solubility in words ([3]; methanol): very soluble
- IC50 [4]: > 50 µM
Structure (SMILES): COc1ccc(-c2ccc(Cn3c(CC(C)(C)C(=O)O)c(SC(C)(C)C)c4cc(OCc5ccccn5)ccc43)cc2)cn1 [sodium 3-[5-(pyridin-2-ylmethoxy)-3-(2-methyl-2-propylthio)-1-[4-(2-methoxypyridin-5-yl)benzyl]-indol-2-yl]-2,2-dimethyl-propionate]
